According to patent publication US6552007B2, “Use of somatostatin analogs for the delivery of anti-tumor drugs to tumor cells” (priority 2000, dated 2003):
Read-outs that look alike come from different tables or passages of the source. Where a SMILES comes first, the peptide text is derived from it. Bridges are numbered along the chain shown (N, C = ends). [ ]: non-standard residue; d: D form.

Experiments:
[1] = test system: MCF-7 cells; assay: Cell death of MCF-7 cells after 1 day treatment; type: cell-based; conditions: 10^−5 M
[2] = test system: CHO cells; assay: Cell death of CHO cells after 1 day treatment; type: cell-based; conditions: 10^−5 M
[3] = test system: MCF-7 cells; conditions: paclitaxel at 10^−6 M, 1 day
[4] = target: human somatostatin receptors subtype 4 (Homo sapiens, UniProt P31391); conditions: cited from earlier work
Sequence of human somatostatin receptors subtype 4 (P31391 whole entry): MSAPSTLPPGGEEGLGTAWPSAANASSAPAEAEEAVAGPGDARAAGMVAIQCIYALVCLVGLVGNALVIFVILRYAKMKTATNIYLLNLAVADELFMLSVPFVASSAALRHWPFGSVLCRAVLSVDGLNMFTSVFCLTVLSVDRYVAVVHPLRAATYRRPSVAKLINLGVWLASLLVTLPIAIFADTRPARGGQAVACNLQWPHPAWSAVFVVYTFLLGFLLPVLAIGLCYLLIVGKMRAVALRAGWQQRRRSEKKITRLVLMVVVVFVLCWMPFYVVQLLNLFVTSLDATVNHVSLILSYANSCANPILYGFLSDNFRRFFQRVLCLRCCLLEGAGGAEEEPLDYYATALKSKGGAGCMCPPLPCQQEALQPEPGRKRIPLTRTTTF

[5] = test system: MCF-7 cells; assay: Fluorescence microscopy binding of fluorescein-labeled octreotide to MCF-7 cells; conditions: 30 min, 4° C.; for binding (fluorescence labeling) to MCF-7 cells: 100 μg in 1 ml buffer
Description: Panels B, D, F and H which correspond to panels A, C, E and G, respectively, show the fluorescence labeled octreotide binding to the MCF-7 cells and the CHO. The MCF-7 cells and CHO cells are inclubated with 100 μg of fluorescein labeled octerotide in 1 ml of a buffer for 30 minutes at 4 ° C., after which the cells are washed with PBS, fixed with 4% paraformaldehye and subject to fluorescence microscopy.

[6] = test system: CHO cells; conditions: 30 min, 4° C.; for binding (fluorescence labeling) to CHO cells: 100 μg in 1 ml buffer; for binding to CHO cells at higher concentration of labeled octreotide: higher concentration (500 μg/ml)
Description: FIG. 2 depicts fluorescence micrographs of MCF-7 and CHO cells after incubation with fluorescin-octreotide at 4° C. for 30 min. […] Cell morphology was shown at A, C, E, and G. Bar=20 μm;
The MCF-7 cells and CHO cells are inclubated with 100 μg of fluorescein labeled octerotide in 1 ml of a buffer for 30 minutes at 4 ° C., after which the cells are washed with PBS, fixed with 4% paraformaldehye and subject to fluorescence microscopy.

[7] = test system: MCF-7 cells; assay: Internalization of labeled octreotide by MCF-7 cells (somatostatin receptor-mediated endocytosis); type: cell-based; conditions: one hour incubation, 100 μg/ml, 37° C.
[8] = target: human somatostatin receptors subtype 2 (Homo sapiens, UniProt P30874); conditions: cited from earlier work
Sequence of human somatostatin receptors subtype 2 (P30874 whole entry): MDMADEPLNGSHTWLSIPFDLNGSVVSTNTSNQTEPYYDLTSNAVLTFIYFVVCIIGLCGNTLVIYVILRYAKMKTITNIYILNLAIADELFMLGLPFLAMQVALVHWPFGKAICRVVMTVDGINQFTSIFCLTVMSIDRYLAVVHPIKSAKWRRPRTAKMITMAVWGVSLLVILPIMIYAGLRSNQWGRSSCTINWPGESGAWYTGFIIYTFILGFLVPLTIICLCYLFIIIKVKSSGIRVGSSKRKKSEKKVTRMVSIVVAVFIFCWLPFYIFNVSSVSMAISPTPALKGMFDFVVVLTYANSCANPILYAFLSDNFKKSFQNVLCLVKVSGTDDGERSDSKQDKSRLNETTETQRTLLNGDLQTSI

[9] = listed as fluorescin-octreotide

For “Paclitaxel-Glutary 1-Octreotide [octreotide conjugated paclitaxel]”, the “cell specificity (MCF-7 versus CHO cells)” value [1] was “specific to MCF-7 cells”, the “death of MCF-7 cells” value [1] was “induces only the death of the MCF-7 cells” and the “death of CHO cells” value [2] was “not of the CHO cells”. The “anti-tumor activity through disrupting microtubule formation, compared with non-conjugated paclitaxel” value [3] was “same anti- tumor activity through disrupting microtubule formation” and the “anti-tumor activity through disrupting microtubule formation, compared with non-conjugated paclitaxel” value ([3]; listed as octreotide-conjugated taxol) was “virtually retains the cellular functions of taxol”.
In the case of `CC(C)[C@@H]1NC(=O)[C@H](CCCCN)NC(=O)[C@@H](Cc2c[nH]c3ccccc23)NC(=O)[C@H](Cc2ccc(O)cc2)NC(=O)[C@@H](NC(=O)[C@H](N)Cc2ccccc2)CSSC[C@@H](C(=O)N[C@@H](Cc2c[nH]c3ccccc23)C(N)=O)NC1=O` [vapreotide, D-Phe-c[Cys-Tyr-D-Trp-Lys-Val-Cys]-Trp-NH2] (H-[dF]CY[dW]KVCW-NH2; disulfide 2-7), the “affinity to human somatostatin receptor subtype 4” value [4] is listed as “high affinities”.
With `CC(=O)O[C@H]1C(=O)[C@@]2(C)[C@H]([C@H](OC(=O)c3ccccc3)[C@]3(O)C[C@H](OC(=O)[C@H](O)[C@@H](NC(=O)c4ccccc4)c4ccccc4)C(C)=C1C3(C)C)[C@]1(OC(C)=O)CO[C@@H]1C[C@@H]2O` [paclitaxel, reference compound] the “death of MCF-7 cells” value [1] was “causes death of both MCF-7 cells and CHO cells” and the “death of CHO cells” value [2] was “causes death of both MCF-7 cells and CHO cells”.
In the case of “Fluorescein-Octreotide [labeled octreotide]”, the “binding (fluorescence labeling) to MCF-7 cells” value [5] is reported as “binds to the MCF-7 cells”, the “binding (fluorescence labeling) to MCF-7 cells” value [5, 9] is reported as “labeling is confined to the MCF-7 cell surface” and the “binding to MCF-7 cells in the presence of excessive non-labeled octreotide” value ([5]; excessive amount (1,000 fold) of nonfluorescent octreotide) is reported as “disappears”. For the same molecule, the “binding (fluorescence labeling) to CHO cells” value [6] was “not to the CHO cells”, the “binding (fluorescence labeling) to CHO cells” value [6, 9] was “No labeling can be seen among the CHO cells” and the “binding to CHO cells at higher concentration of labeled octreotide” value [6] was “does not bind to the CHO cells”. The “binding to CHO cells at higher concentration of labeled octreotide” value [6, 9] was “No labeling”, the “internalization into MCF-7 cytosol” value [7] was “internalized into the MCF-7 cytosol” and the “internalization into MCF-7 cytosol” value [7, 9] was “internalization”.
In the case of `C[C@@H](O)[C@@H]1NC(=O)[C@H](CCCCN)NC(=O)[C@@H](Cc2c[nH]c3ccccc23)NC(=O)[C@H](Cc2ccccc2)NC(=O)[C@@H](NC(=O)[C@H](N)Cc2ccccc2)CSSC[C@@H](C(=O)N[C@H](CO)[C@@H](C)O)NC1=O` [octreotide, D-Phe-c[Cys-Phe-D-Trp-Lys-Thr-Cys]-Thr(ol)], the “affinity to human somatostatin receptor subtype 2” value [8] is listed as “high affinities”.
